Test results reported in patent publication US12310946B2, “Pharmaceutical composition for oral administration of edaravone and method of administering same” (MITSUBISHI TANABE PHARMA CORPORATION, priority 2020, dated 2025).
Where two headings read alike, the source gives them in different places.

Experiments:
[1] = Clinical study #10: PK of edaravone oral formulation (formula #7, 120 mg), standard meal 30 minutes after administration vs fasted; format: in vivo, human; settings: 120 mg oral; for Cmax / Tmax / half-life / AUC(0-t): male, human, plasma, po, 120 mg, mean; for AUC(0-t): read-out: AUC0-24h
Protocol: Effects of meal consumption 30 minutes after administration of the edaravone oral formulation on the pharmacokinetics of edaravone were evaluated. Specifically, a clinical study #10 described below was conducted in Japanese healthy adult male subjects. In the clinical study #10, the edaravone oral formulation of the formula #7 (edaravone content of 120 mg) in Table 11 above was used and administered orally once during the study period. […]
As a post-administration consumption group, subjects in fasted conditions after a lapse of 10 hours or longer from meal consumption were orally administered with the edaravone oral formulation, […] Blood samples were each collected before the administration, and 15 minutes, 30 minutes, 1 hour, 1.5 hours, 2 hours, 4 hours, 6 hours, 8 hours, 12 hours, and 24 hours after the administration, and the concentrations of unchanged edaravone in plasma were measured. […] was carried out after the blood sample collection 30 minutes after the administration, and a subsequent meal was not consumed until the blood sample collection 4 hours after the administration was completed.
On the other hand, as a fasted group for reference, the edaravone oral formulation was administered orally to different subjects in fasted conditions, blood samples were collected, and the concentrations of unchanged edaravone in plasma were measured in the same manner.

[2] = Clinical study #2: PK of edaravone oral formulation (formula #2), fasted vs 4 h after high-fat meal; format: in vivo; settings: male, human, plasma, 100 mg, 100 mg oral, mean (n = 9)
Protocol: (§1) Effects of meal consumption before administration of the edaravone oral formulation on the pharmacokinetics of edaravone were evaluated. Specifically, clinical studies #1, #2, and #3 described below were conducted on separate days in Japanese healthy adult male subjects. In each of clinical studies #1, #2, and #3, one dose each of edaravone oral formulations (edaravone suspensions) of formulas #1, #2, and #3 shown in Table 1 below were used respectively and administered orally once during the study period. For each clinical study, a reference study was conducted (reference example), in which the edaravone oral formulation was administered in fasted conditions as described below, and in each clinical study and the corresponding reference study, the edaravone oral formulation was each administered to the same subjects.
(§2) For the high-fat meal, a meal with total calories per meal of 800 to 1000 kilocalories and calorie intake from lipid of 50% was used. For the standard meal, a meal with total calories per meal of 400 to 500 kilocalories and calorie intake from lipid of 25% was used. For the light meal, a liquid-type nutritional supplement with total calories per meal of 250 kilocalories (enteral nutritional supplement: Ensure Liquid (trade name)) was used.
(§3) The edaravone oral formulation (formula #2) was administered orally to the subjects 4 hours after high-fat meal consumption. Blood samples were each collected before the administration, and 5 minutes, 15 minutes, 30 minutes, 1 hour, 1.5 hours, 2 hours, 4 hours, 6 hours, 8 hours, 12 hours, 24 hours, 36 hours, and 48 hours after the administration, and the concentrations of unchanged edaravone in plasma were measured. On the other hand, as a reference example, the edaravone oral formulation was administered orally to the same subjects in fasted conditions, blood samples were collected, and the concentrations of unchanged edaravone in plasma were measured in the same manner. For the administration in fasted conditions, the edaravone oral formulation was administered orally after a lapse of 10 hours or longer from the previous meal consumption. None of the subjects consumed a next meal until the blood sample collection 4 hours after the administration was completed.

[3] = Adsorption of edaravone to catheter in vitro (recovery after wash-in); format: physicochemical; settings: regardless of the material of the catheter
Protocol: In administration using a catheter, catheters of various materials are used in medical facilities. Thus, whether administration is feasible with a catheter of any material was investigated by evaluating adsorption properties of catheters. That is, the edaravone oral formulation (#3) was passed through a catheter, and then the percentage of edaravone collected by washing in with water was evaluated.
Specifically, the edaravone oral formulation was loaded into a syringe for catheter administration to give an edaravone amount of 105 mg, and the edaravone oral formulation was passed from the syringe to each of the catheters. Water at a predetermined temperature was then injected into the catheter to wash in the edaravone oral formulation. The edaravone oral formulation that passed through the catheter and the wash-in liquid were collected and mixed, and an amount of edaravone contained in the mixed liquid was measured. The edaravone oral formulation was washed in under any of the following conditions: with 10 ml of water three times, with 30 ml of water at 25° C. or 40° C. once, or with 50 mL of water at 25° C. or 40° C. once. Three measurements were made for each catheter, and the mean and SD of recovery % were calculated.

[4] = Clinical study #1: PK of edaravone oral formulation (formula #1), fasted vs 30 min after high-fat meal; format: in vivo; settings: male, human, plasma, 200 mg, 200 mg oral
Protocol: as §1, §2
as §3, with “formulation (formula #1) was administered” for “formulation (formula #2) was administered”, “the subjects 30 minutes after high-fat” for “the subjects 4 hours after high-fat”, “administration, and 15 minutes,” for “administration, and 5 minutes, 15 minutes,”, “hours or more from the” for “hours or longer from the”, “previous meal consumption (the same applies hereinafter). None of” for “previous meal consumption. None of”

[5] = standard meal 30 minutes after administration vs fasted
[6] = formula #7, 30 min before low-fat meal (n = 6)
[7] = formula #2, 4 h after high-fat meal
[8] = formula #1, 30 min after high-fat meal, mean (n = 5)
[9] = formula #1, fasted, mean (n = 6)

## CC1=NN(c2ccccc2)C(=O)C1 [Edaravone, 3-methyl-1-phenyl-2-pyrazolin-5-one]
[1]; [5]
  decrease in the AUC in comparison with the fasted group: about 14.5%
  decrease in the Cmax in comparison with the fasted group: about 12.6%
[1]; [6]
  Cmax: 1950 ng/mL
  Tmax: 0.42 h
  half-life: 4.6 h
  AUC(0-t): 1920 ng·h/mL
[1]; formula #7, fasted (n = 6)
  Cmax: 1740 ng/mL
  Tmax: 0.38 h
  half-life: 5.13 h
  AUC(0-t): 2240 ng·h/mL
[2]; [7]
  AUC(0-inf): 1250 ng·h/mL
  Cmax: 1010 ng/mL
  Tmax: 0.47 h
  half-life: 7.66 h
[2]; formula #2, fasted
  AUC(0-inf): 1650 ng·h/mL
  Cmax: 1810 ng/mL
  Tmax: 0.36 h
  half-life: 9.33 h
[3]
  adsorption of edaravone on the catheters: No adsorption
[4]; [8]
  AUC(0-inf): 2470 ng·h/mL
  Cmax: 899 ng/mL
  Tmax: 1.35 h
  half-life: 5.23 h
[4]; [9]
  AUC(0-inf): 6310 ng·h/mL
  Cmax: 4930 ng/mL
  Tmax: 0.42 h
  half-life: 9.05 h
